From patent US10131652B2, “Pyrimidinyloxy benzene derivatives as herbicides” (E. I. DU PONT DE NEMOURS AND COMPANY, priority 2014, dated 2018)
Where two headings read alike, the source gives them in different places.

Legend:
Assay type in all cases: in vivo
[1] = system: chickweed (common chickweed, Stellaria media); assay: Test D postemergence plant response
From the text: At the same time, plants selected from these crop and weed species and also kochia (Kochia scoparia), wild oat (Avena fatua), and chickweed (common chickweed, Stellaria media) were planted in pots containing Redi-Earth® planting medium (Scotts Company, 14111 Scottslawn Road, Marysville, Ohio 43041) comprising spaghnum peat moss, vermiculite, wetting agent and starter nutrients and treated with postemergence applications of test chemicals formulated in the same manner. Plants ranged in height from 2 to 18 cm (1- to 4-leaf stage) for postemergence treatments. Treated plants and controls were maintained in a greenhouse for 13 to 15 days, after which time all species were compared to controls and visually evaluated. Plant response ratings, summarized in Table D, are based on a scale of 0 to 100 where 0 is no effect and 100 is complete control. A dash (-) response means no test result.

[2] = system: Italian ryegrass (Lolium multiflorum); assay: Test D pre-/postemergence plant response; conditions: Lolium multiflorum; for pest or weed control at 8 g/ha: 8 g ai/ha; for pest or weed control at 16 g/ha: 16 g ai/ha; for pest or weed control at 31 g/ha: 31 g ai/ha; for pest or weed control at 62 g/ha: 62 g ai/ha
Procedure, shortened: (§1)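 Two application timings were run together: preemergence onto seeded loam–sand pots, and postemergence onto 1- to 4-leaf plants (2 to 18 cm) in peat/vermiculite medium with starter nutrients. Formulation was a non-phytotoxic solvent with surfactant. Ratings, 0 to 100, were made visually versus controls after 13 to 15 greenhouse days.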

soybean (Glycine max) = assay: Test D pre-/postemergence plant response; conditions: Glycine max; for plant injury at 8 g/ha: 8 g ai/ha; for plant injury at 16 g/ha: 16 g ai/ha; for plant injury at 31 g/ha: 31 g ai/ha; for plant injury at 62 g/ha: 62 g ai/ha
Procedure, shortened: as §1

[3] = system: yellow nutsedge (Cyperus esculentus); assay: Test D pre-/postemergence plant response; conditions: Cyperus; for pest or weed control at 8 g/ha: 8 g ai/ha; for pest or weed control at 16 g/ha: 16 g ai/ha; for pest or weed control at 31 g/ha: 31 g ai/ha; for pest or weed control at 62 g/ha: 62 g ai/ha
Procedure, shortened: as §1

[4] = system: pigweed (Amaranthus retroflexus); assay: Test D pre-/postemergence plant response; conditions: Amaranthus retroflexus; for pest or weed control at 8 g/ha: 8 g ai/ha; for pest or weed control at 16 g/ha: 16 g ai/ha; for pest or weed control at 31 g/ha: 31 g ai/ha; for pest or weed control at 62 g/ha: 62 g ai/ha
Procedure, shortened: as §1

[5] = system: oilseed rape (Brassica napus); assay: Test D pre-/postemergence plant response; conditions: Brassica napus; for plant injury at 8 g/ha: 8 g ai/ha; for plant injury at 16 g/ha: 16 g ai/ha; for plant injury at 31 g/ha: 31 g ai/ha; for plant injury at 62 g/ha: 62 g ai/ha
Procedure, shortened: as §1

corn (Zea mays) = assay: Test D pre-/postemergence plant response; conditions: Zea mays, post-emergence, Postemergence
Procedure, shortened: as §1

[6] = post-emergence, Postemergence, scale 0 to 100 (0 no effect, 100 complete control), read-out: Ryegrass, Italian plant response rating
[7] = pre-emergence, Preemergence, scale 0 to 100 (0 no effect, 100 complete control), read-out: Plant response rating, Ryegrass, Italian
[8] = post-emergence, Postemergence, scale 0 to 100 (0 no effect, 100 complete control), read-out: Soybean plant response rating
[9] = pre-emergence, Preemergence, scale 0 to 100 (0 no effect, 100 complete control), read-out: Plant response rating, Soybean
[10] = post-emergence, Postemergence, scale 0 to 100 (0 no effect, 100 complete control), read-out: Nutsedge, Yellow plant response rating
[11] = pre-emergence, Preemergence, scale 0 to 100 (0 no effect, 100 complete control), read-out: Plant response rating, Nutsedge, Yellow
[12] = post-emergence, Postemergence, scale 0 to 100 (0 no effect, 100 complete control), read-out: Pigweed plant response rating
[13] = pre-emergence, Preemergence, scale 0 to 100 (0 no effect, 100 complete control), read-out: Plant response rating, Pigweed
[14] = post-emergence, Postemergence, scale 0 to 100 (0 no effect, 100 complete control), read-out: Oilseed Rape plant response rating
[15] = pre-emergence, Preemergence, scale 0 to 100 (0 no effect, 100 complete control), read-out: Plant response rating, Oilseed Rape

SMILES: FC(F)c1cc(-c2ccccc2Oc2ncc(Cl)cn2)no1 [Compound 35, 5-chloro-2-[2-[5-(difluoromethyl)-3-isoxazolyl]phenoxy]pyrimidine]
- Plant response rating (scale 0 to 100), Chickweed ([1]; 8 g ai/ha): 50
- pest or weed control at 16 g/ha ([1]; Stellaria media, post-emergence, 16 g ai/ha, scale 0 to 100 (0 no effect, 100 complete control), read-out: Chickweed plant response rating): 85%
- pest or weed control at 31 g/ha ([1]; Stellaria media, post-emergence, 31 g ai/ha, scale 0 to 100 (0 no effect, 100 complete control), read-out: Chickweed plant response rating): 85%
- pest or weed control at 62 g/ha ([1]; Stellaria media, post-emergence, 62 g ai/ha, scale 0 to 100, 0 no effect, 100 complete control, read-out: Plant response rating, Chickweed): 100%
- pest or weed control at 8 g/ha ([2]; post-emergence, Postemergence, read-out: Plant response rating (scale 0 to 100), Ryegrass, Italian): 0%
- pest or weed control at 16 g/ha [2, 6]: 0%
- pest or weed control at 31 g/ha [2, 6]: 5%
- pest or weed control at 62 g/ha ([2]; post-emergence, Postemergence, scale 0 to 100, 0 no effect, 100 complete control, read-out: Plant response rating, Ryegrass, Italian): 20%
- pest or weed control at 8 g/ha [2, 7]: 0%
- pest or weed control at 16 g/ha [2, 7]: 0%
- pest or weed control at 31 g/ha [2, 7]: 30%
- pest or weed control at 62 g/ha [2, 7]: 80%
- plant injury at 8 g/ha (soybean (Glycine max); post-emergence, Postemergence, read-out: Plant response rating (scale 0 to 100), Soybean): 40%
- plant injury at 16 g/ha (soybean (Glycine max); [8]): 65%
- plant injury at 31 g/ha (soybean (Glycine max); [8]): 80%
- plant injury at 62 g/ha (soybean (Glycine max); post-emergence, Postemergence, scale 0 to 100, 0 no effect, 100 complete control, read-out: Plant response rating, Soybean): 95%
- plant injury at 8 g/ha (soybean (Glycine max); [9]): 10%
- plant injury at 16 g/ha (soybean (Glycine max); [9]): 30%
- plant injury at 31 g/ha (soybean (Glycine max); [9]): 60%
- plant injury at 62 g/ha (soybean (Glycine max); [9]): 85%
- pest or weed control at 8 g/ha ([3]; post-emergence, Postemergence, read-out: Plant response rating (scale 0 to 100), Nutsedge, Yellow): 5%
- pest or weed control at 16 g/ha [3, 10]: 5%
- pest or weed control at 31 g/ha [3, 10]: 5%
- pest or weed control at 62 g/ha ([3]; post-emergence, Postemergence, scale 0 to 100, 0 no effect, 100 complete control, read-out: Plant response rating, Nutsedge, Yellow): 5%
- pest or weed control at 8 g/ha [3, 11]: 0%
- pest or weed control at 16 g/ha [3, 11]: 0%
- pest or weed control at 31 g/ha [3, 11]: 5%
- pest or weed control at 62 g/ha [3, 11]: 5%
- pest or weed control at 8 g/ha ([4]; post-emergence, Postemergence, read-out: Plant response rating (scale 0 to 100), Pigweed): 80%
- pest or weed control at 16 g/ha [4, 12]: 80%
- pest or weed control at 31 g/ha [4, 12]: 90%
- pest or weed control at 62 g/ha ([4]; post-emergence, Postemergence, scale 0 to 100, 0 no effect, 100 complete control, read-out: Plant response rating, Pigweed): 95%
- pest or weed control at 8 g/ha [4, 13]: 100%
- pest or weed control at 16 g/ha [4, 13]: 100%
- pest or weed control at 31 g/ha [4, 13]: 100%
- pest or weed control at 62 g/ha [4, 13]: 100%
- plant injury at 8 g/ha ([5]; post-emergence, Postemergence, read-out: Plant response rating (scale 0 to 100), Oilseed Rape): 5%
- plant injury at 16 g/ha [5, 14]: 45%
- plant injury at 31 g/ha [5, 14]: 80%
- plant injury at 62 g/ha ([5]; post-emergence, Postemergence, scale 0 to 100, 0 no effect, 100 complete control, read-out: Plant response rating, Oilseed Rape): 98%
- plant injury at 8 g/ha [5, 15]: 85%
- plant injury at 16 g/ha [5, 15]: 98%
- plant injury at 31 g/ha [5, 15]: 100%
- plant injury at 62 g/ha [5, 15]: 100%
- plant injury at 8 g/ha (corn (Zea mays); 8 g ai/ha, read-out: Plant response rating (scale 0 to 100), Corn): 5%
- plant injury at 16 g/ha (corn (Zea mays); 16 g ai/ha, scale 0 to 100 (0 no effect, 100 complete control), read-out: Corn plant response rating): 5%
